Results published in US20100137449A1, “SUBSTITUTED 1,3-CYCLOPENTADIONE MULTI-TARGET PROTEIN KINASE MODULATORS OF CANCER, ANGIOGENESIS AND THE INFLAMMATORY PATHWAYS ASSOCIATED THEREWITH” (METAPROTEOMICS, LLC, priority 2007, published 2010).

Key:
Assay in all cases: KinaseProfiler Assay
[1] = target: T1, NLK(h) (Homo sapiens, UniProt Q9UBE8)
T1 sequence (Q9UBE8 1-527): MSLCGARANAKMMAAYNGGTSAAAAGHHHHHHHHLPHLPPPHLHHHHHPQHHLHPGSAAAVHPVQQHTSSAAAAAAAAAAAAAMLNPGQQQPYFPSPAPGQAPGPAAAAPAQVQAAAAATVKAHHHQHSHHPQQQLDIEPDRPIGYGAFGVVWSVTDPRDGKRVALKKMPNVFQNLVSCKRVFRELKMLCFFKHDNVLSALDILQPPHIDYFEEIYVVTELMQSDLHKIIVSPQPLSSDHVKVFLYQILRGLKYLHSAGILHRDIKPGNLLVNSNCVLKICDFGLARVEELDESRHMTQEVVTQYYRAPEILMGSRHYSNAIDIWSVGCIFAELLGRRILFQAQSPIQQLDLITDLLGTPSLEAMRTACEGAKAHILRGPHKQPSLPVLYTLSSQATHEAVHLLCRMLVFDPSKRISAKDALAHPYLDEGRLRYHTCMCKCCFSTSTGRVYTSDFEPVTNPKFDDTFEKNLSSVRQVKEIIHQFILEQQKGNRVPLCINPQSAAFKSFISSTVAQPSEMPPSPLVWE

[2] = target: CDK9/cyclin T1(h) (Homo sapiens, UniProt P50750)
CDK9/cyclin T1(h), sequence (P50750 whole entry): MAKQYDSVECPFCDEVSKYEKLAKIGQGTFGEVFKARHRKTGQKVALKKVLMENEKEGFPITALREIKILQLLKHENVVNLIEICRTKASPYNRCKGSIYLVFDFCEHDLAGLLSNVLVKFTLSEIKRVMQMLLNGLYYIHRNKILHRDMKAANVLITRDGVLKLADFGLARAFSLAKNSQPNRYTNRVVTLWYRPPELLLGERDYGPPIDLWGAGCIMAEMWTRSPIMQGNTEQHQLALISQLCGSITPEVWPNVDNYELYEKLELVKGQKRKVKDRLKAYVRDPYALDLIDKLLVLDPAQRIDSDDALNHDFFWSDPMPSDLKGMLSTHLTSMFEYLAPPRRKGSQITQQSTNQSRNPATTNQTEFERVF
CDK9/cyclin T1(h), sequence (O60563 whole entry partner): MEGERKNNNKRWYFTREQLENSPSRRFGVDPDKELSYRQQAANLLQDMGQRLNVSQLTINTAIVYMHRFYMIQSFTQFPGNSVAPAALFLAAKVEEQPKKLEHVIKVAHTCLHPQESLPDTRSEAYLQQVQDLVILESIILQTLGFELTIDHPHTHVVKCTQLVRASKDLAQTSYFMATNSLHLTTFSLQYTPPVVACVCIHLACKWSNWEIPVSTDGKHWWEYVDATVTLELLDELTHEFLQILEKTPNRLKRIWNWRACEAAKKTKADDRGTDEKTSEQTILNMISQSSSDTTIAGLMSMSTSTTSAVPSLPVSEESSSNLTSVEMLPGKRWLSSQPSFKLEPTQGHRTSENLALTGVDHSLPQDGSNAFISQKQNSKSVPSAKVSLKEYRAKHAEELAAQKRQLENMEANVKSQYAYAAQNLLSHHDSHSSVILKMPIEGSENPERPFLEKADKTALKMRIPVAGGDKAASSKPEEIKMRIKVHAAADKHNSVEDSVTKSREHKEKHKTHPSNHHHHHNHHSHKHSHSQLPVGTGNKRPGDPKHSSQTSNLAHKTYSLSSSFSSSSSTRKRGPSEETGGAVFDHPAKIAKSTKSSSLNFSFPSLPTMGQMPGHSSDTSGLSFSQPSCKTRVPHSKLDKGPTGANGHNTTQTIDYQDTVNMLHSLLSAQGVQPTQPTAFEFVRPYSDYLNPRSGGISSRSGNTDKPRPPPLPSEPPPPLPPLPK

[3] = target: MSK2(h) (Homo sapiens, UniProt O75676)
MSK2(h), sequence (O75676 whole entry): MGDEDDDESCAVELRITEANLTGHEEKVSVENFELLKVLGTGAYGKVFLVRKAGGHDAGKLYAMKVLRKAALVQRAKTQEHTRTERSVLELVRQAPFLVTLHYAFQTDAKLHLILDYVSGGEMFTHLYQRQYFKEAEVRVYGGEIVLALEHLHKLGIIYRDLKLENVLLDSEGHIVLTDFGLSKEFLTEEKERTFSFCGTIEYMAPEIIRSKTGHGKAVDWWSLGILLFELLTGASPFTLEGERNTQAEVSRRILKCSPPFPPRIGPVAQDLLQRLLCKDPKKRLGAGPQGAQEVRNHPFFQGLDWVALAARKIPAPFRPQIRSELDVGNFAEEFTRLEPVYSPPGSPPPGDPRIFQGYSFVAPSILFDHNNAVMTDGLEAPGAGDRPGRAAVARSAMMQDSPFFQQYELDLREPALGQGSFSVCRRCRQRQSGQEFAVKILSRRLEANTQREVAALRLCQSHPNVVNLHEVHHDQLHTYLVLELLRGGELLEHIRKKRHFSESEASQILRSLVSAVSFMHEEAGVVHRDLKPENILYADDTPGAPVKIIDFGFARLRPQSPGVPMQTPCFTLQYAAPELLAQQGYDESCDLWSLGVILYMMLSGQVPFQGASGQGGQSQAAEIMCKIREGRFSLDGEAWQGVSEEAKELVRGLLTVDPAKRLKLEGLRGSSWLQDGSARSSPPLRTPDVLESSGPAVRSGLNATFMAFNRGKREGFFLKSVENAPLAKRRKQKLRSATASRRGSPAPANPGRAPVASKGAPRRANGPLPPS

[4] = target: T2, ARK5(h) (Homo sapiens, UniProt O60285)
T2 sequence (O60285 1-661): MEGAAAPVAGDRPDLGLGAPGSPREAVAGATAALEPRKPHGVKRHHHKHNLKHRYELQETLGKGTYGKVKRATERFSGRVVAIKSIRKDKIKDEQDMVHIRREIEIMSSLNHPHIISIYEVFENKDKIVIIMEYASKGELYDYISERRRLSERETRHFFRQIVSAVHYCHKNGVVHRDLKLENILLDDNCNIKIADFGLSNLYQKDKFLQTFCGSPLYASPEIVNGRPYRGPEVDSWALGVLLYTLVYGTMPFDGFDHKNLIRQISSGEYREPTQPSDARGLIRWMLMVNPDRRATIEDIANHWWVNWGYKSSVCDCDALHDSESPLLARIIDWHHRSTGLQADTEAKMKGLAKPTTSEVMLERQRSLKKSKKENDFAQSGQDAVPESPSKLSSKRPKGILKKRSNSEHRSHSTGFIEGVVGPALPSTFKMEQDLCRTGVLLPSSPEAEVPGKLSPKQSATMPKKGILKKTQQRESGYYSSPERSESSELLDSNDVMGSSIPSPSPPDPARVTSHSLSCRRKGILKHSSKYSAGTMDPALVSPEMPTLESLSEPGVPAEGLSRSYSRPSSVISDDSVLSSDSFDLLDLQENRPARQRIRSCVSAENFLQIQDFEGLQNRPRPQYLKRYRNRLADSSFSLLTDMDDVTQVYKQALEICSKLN

[5] = target: T3, ZAP-70(h) (Homo sapiens, UniProt P43403)
T3 sequence (P43403 1-619): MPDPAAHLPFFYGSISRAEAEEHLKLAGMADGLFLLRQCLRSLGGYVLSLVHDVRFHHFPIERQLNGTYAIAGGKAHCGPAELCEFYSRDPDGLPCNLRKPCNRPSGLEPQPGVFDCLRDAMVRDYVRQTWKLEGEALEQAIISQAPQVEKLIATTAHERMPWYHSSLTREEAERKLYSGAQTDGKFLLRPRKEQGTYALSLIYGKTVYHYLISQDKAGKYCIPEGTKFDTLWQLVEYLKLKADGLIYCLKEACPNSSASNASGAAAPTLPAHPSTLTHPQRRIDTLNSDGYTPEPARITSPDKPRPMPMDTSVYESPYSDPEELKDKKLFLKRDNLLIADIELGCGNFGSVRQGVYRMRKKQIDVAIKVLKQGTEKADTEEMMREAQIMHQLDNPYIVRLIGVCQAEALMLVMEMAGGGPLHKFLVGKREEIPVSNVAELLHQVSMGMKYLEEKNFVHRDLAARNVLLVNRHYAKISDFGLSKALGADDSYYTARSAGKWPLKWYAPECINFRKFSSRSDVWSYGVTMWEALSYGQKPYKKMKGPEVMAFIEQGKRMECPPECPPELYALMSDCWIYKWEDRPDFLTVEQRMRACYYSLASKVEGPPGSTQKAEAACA

[6] = target: DAPK1(h) (Homo sapiens, UniProt P53355)
DAPK1(h), sequence (P53355 whole entry): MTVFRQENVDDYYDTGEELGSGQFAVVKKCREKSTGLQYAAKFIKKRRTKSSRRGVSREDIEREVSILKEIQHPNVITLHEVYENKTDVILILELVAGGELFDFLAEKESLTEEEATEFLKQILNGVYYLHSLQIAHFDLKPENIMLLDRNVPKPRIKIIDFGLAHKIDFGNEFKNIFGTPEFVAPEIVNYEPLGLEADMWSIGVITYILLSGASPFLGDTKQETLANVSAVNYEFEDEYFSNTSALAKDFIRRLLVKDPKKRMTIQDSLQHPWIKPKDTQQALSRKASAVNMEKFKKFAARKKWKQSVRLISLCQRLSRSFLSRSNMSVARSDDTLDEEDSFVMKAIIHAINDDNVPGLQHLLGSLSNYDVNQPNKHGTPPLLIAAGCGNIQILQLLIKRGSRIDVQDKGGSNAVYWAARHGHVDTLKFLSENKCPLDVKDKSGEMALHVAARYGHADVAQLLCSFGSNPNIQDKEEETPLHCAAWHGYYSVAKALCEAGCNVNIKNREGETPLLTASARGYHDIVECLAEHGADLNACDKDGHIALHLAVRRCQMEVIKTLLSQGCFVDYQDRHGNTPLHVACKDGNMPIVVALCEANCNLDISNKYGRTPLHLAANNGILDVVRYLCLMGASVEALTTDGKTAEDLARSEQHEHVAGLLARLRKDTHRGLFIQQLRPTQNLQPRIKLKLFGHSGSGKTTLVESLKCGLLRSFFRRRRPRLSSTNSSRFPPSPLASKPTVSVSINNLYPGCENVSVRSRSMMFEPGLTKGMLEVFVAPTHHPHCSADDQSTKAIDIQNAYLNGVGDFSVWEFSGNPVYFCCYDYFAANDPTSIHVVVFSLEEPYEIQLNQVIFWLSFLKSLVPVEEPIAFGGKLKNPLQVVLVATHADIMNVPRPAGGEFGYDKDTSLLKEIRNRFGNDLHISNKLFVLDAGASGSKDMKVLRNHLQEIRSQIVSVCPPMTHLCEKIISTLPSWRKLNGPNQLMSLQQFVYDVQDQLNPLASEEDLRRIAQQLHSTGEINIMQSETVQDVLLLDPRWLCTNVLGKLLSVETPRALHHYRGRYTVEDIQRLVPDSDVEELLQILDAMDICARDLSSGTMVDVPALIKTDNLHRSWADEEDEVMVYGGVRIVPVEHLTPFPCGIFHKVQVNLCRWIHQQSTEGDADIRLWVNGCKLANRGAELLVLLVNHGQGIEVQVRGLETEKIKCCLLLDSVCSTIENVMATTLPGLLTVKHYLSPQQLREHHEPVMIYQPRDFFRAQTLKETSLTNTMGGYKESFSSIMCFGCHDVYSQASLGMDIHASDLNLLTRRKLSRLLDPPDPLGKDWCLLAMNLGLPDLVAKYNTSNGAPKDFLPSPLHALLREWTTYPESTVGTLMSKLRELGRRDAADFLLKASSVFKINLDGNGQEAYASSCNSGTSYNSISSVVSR

[7] = target: cKit(h) (Homo sapiens, UniProt P10721)
cKit(h), sequence (P10721 26-976): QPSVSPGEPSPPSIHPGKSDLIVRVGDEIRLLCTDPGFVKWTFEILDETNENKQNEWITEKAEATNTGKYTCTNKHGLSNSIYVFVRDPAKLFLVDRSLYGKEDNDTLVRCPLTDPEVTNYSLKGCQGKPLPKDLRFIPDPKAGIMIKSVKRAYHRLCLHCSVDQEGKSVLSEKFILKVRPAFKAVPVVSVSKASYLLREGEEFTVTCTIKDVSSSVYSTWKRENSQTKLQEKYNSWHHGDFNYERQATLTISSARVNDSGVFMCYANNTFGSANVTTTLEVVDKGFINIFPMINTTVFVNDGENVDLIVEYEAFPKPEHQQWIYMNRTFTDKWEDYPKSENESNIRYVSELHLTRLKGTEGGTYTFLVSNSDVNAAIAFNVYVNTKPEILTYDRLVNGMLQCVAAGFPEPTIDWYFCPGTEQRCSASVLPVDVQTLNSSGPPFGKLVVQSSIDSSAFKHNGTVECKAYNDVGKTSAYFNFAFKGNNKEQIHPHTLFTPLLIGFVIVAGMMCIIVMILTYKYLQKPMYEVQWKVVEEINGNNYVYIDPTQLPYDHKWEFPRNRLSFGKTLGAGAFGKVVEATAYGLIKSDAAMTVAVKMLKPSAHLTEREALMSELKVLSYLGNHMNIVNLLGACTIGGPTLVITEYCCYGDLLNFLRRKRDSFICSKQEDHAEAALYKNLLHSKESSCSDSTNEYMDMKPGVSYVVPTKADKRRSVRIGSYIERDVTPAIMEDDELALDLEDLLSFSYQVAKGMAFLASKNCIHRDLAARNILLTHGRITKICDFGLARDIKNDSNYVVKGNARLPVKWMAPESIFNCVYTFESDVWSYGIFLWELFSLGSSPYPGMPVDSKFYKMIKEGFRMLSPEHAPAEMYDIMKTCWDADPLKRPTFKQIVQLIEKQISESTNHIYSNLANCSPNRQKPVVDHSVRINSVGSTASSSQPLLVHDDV

[8] = target: CaMKIIβ(h) (Homo sapiens, UniProt Q13554)
CaMKIIβ(h), sequence (Q13554 whole entry): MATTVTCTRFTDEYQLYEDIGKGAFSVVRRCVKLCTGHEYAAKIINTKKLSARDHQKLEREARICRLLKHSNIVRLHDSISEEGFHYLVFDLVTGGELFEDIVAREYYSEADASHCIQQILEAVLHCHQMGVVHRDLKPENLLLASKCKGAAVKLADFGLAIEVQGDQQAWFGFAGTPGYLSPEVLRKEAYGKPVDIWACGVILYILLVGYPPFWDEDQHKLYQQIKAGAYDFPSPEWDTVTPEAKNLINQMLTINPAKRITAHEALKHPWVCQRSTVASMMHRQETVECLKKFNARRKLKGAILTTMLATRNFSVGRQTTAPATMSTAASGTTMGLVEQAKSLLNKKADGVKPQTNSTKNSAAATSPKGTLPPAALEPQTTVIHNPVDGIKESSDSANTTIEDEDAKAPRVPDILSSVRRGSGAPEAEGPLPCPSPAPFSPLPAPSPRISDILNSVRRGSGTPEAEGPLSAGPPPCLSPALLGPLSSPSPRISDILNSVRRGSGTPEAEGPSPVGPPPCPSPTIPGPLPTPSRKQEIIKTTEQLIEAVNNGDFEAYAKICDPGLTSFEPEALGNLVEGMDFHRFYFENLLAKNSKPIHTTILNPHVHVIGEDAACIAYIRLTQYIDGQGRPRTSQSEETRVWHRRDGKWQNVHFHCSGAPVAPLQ

## CC(C)CCC(=O)[C@]1(O)C(O)=C(C(=O)C(C)C)C(=O)[C@H]1CCC(C)C [TH2, tetrahydroiso-cohumulone]
[1]; 1 μg/ml
  kinase inhibition: 105% of control
[1]; 5 μg/ml
  kinase inhibition: 104% of control
[1]; 25 μg/ml
  kinase inhibition: 98% of control
[1]; 50 μg/ml
  kinase inhibition: 96% of control
[1]; 100 μg/ml
  kinase inhibition: 85% of control
[2]; 1 μg/ml
  kinase inhibition: 99% of control
[2]; 5 μg/ml
  kinase inhibition: 102% of control
[2]; 25 μg/ml
  kinase inhibition: 78% of control
[2]; 50 μg/ml
  kinase inhibition: 63% of control
[2]; 100 μg/ml
  kinase inhibition: 49% of control
[3]; 1 μg/ml
  kinase inhibition: 99% of control
[3]; 5 μg/ml
  kinase inhibition: 94% of control
[3]; 25 μg/ml
  kinase inhibition: 70% of control
[3]; 50 μg/ml
  kinase inhibition: 51% of control
[3]; 100 μg/ml
  kinase inhibition: 37% of control
[4]; 1 μg/ml
  kinase inhibition: 103% of control
[4]; 5 μg/ml
  kinase inhibition: 104% of control
[4]; 25 μg/ml
  kinase inhibition: 99% of control
[4]; 50 μg/ml
  kinase inhibition: 77% of control
[4]; 100 μg/ml
  kinase inhibition: 74% of control
[5]; 1 μg/ml
  kinase inhibition: 125% of control
[5]; 5 μg/ml
  kinase inhibition: 110% of control
[5]; 25 μg/ml
  kinase inhibition: 124% of control
[5]; 50 μg/ml
  kinase inhibition: 124% of control
[5]; 100 μg/ml
  kinase inhibition: 107% of control
[6]; 1 μg/ml
  kinase inhibition: 63% of control
[6]; 5 μg/ml
  kinase inhibition: 40% of control
[6]; 25 μg/ml
  kinase inhibition: 32% of control
[6]; 50 μg/ml
  kinase inhibition: 25% of control
[6]; 100 μg/ml
  kinase inhibition: 19% of control
[7]; 1 μg/ml
  kinase inhibition: 110% of control
[7]; 5 μg/ml
  kinase inhibition: 87% of control
[7]; 25 μg/ml
  kinase inhibition: 86% of control
[7]; 50 μg/ml
  kinase inhibition: 96% of control
[7]; 100 μg/ml
  kinase inhibition: 95% of control
[8]; 1 μg/ml
  kinase inhibition: 103% of control
[8]; 5 μg/ml
  kinase inhibition: 106% of control
[8]; 25 μg/ml
  kinase inhibition: 95% of control
[8]; 50 μg/ml
  kinase inhibition: 83% of control
[8]; 100 μg/ml
  kinase inhibition: 66% of control
